Activity calls are given as the source filed them.
Experiments:
[1] = molecular target: T1, Sentrin-specific protease 8 (Homo sapiens, UniProt Q96LD8); type: functional
T1 sequence (Q96LD8 whole entry): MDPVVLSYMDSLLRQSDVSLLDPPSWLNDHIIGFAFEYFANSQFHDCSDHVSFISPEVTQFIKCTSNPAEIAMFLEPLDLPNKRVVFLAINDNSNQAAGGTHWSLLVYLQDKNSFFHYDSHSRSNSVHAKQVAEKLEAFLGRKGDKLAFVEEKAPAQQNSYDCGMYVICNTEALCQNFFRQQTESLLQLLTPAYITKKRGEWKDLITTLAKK

[2] = molecular target: T1, Sentrin-specific protease 8; type: functional; remark: listed apart in the source
Caspase-3 = molecular target: T2, Caspase-3 (Homo sapiens, UniProt P42574); assay: Dose-response confirmation of uHTS inhibitor hits of Sentrin-Specific Protease 8 in a Caspase-3 Fluorescence assay.; type: functional
T2 sequence (P42574 whole entry): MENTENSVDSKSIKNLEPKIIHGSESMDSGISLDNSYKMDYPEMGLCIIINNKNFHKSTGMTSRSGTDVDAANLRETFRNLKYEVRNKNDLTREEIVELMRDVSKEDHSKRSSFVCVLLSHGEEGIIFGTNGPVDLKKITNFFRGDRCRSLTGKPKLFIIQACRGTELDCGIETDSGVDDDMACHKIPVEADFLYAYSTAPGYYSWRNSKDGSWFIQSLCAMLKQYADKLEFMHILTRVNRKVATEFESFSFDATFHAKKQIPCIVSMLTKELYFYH

[3] = Inhibition of T. cruzi Tulahuen strain amastigotes in L-6 muscle cells Measured in Cell-Based and Microorganism Combination System Using Plate Reader - 2138-03_Inhibitor_Dose_CherryPick_Activity.; type: functional; settings: Rattus norvegicus, L6
[4] = cytotoxicity in L-6 rat myocytes, dose response, cytotoxicity control, cell-based, plate reader, cherry-pick (AID 651896); type: functional
[5] = Inhibition of Plasmodium falciparum NF54 Measured in Cell-Based System Using Plate Reader - 2138-11_Inhibitor_Dose_CherryPick_Activity.; type: functional
[6] = L. donovani amastigote growth inhibition, dose response, axenic amastigotes, plate reader, cherry pick (AID 651891); type: functional, cell-based; settings: Leishmania donovani
[7] = T. b. rhodesiense proliferation inhibition, dose response, STIB900 strain, plate reader, cherry pick (AID 651893); type: functional, cell-based; settings: Trypanosoma brucei
[8] = molecular target: T3, Sentrin-specific protease 1 (Homo sapiens, UniProt Q9P0U3); assay: potency of human SENP1 inhibitors, dose response, biochemical, kinetic FRET (AID 651697); type: functional; settings: read-out: IC50_Mean
[9] = molecular target: T3, Sentrin-specific protease 1; assay: Dose response confirmation of small molecule inhibitors of the catalytic domain of the SUMO protease, SENP1 in a FRET assay.; type: functional; settings: read-out: IC50_Mean
BJ [10] = assay: cytotoxicity toward BJ-TERT fibroblasts, dose response, cell-based, RAS-independent, luminescence (AID 1933); type: functional; settings: Homo sapiens
BJ [11] = assay: cytotoxicity toward BJ-TERT-LT-ST fibroblasts, dose response, cell-based, RAS-independent, luminescence (AID 1935); type: functional; settings: Homo sapiens;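 further: BJ fibroblasts immortalized with TERT plus LT and ST oncogenes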
[12] = cytotoxicity toward DRD oncogenic fibroblasts, dose response, cell-based, non-viral oncogenic, luminescence (AID 1934); type: functional; settings: Homo sapiens
BJ [13] = assay: cytotoxicity toward Ras-transformed BJeLR fibroblasts, dose response, cell-based, alamar blue fluorescence, cherrypicked samples (AID 2631); type: functional; settings: Homo sapiens;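 further: confirmatory dose-response assay in RAS-dependent BJ fibroblasts engineered with TERT, LT and ST, with cytotoxicity read by fluorescence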
[14] = Shn3 3'UTR reporter inhibitors, dose response, cell-based, Clone20 osteoblasts, firefly luciferase, cherry-picked (AID 624132); type: functional;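 further: firefly luciferase luminescence from reporter carrying the Shn3 3'UTR in osteoblasts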
[15] = HepG2 cell cytotoxicity, dose response, cytotoxicity control for Shn3 inhibitor project, CellTiter-Glo, cherry-picked (AID 624134); type: functional, cell-based
[16] = control 3'UTR Renilla luciferase suppression, dose response, counter-screen for Shn3 inhibitor project, cell-based, Clone20-Shn3RL, cherry-picked (AID 624133); type: functional
[17] = molecular target: T4, Rac GTPase-activating protein 1 (Homo sapiens, UniProt Q9H0H5); assay: MgcRacGAP GTPase-activating activity inhibitors, confirmation, biochemical, ADP Hunter fluorescence, primary and confirmatory (AID 624330); type: functional
T4 sequence (Q9H0H5 whole entry): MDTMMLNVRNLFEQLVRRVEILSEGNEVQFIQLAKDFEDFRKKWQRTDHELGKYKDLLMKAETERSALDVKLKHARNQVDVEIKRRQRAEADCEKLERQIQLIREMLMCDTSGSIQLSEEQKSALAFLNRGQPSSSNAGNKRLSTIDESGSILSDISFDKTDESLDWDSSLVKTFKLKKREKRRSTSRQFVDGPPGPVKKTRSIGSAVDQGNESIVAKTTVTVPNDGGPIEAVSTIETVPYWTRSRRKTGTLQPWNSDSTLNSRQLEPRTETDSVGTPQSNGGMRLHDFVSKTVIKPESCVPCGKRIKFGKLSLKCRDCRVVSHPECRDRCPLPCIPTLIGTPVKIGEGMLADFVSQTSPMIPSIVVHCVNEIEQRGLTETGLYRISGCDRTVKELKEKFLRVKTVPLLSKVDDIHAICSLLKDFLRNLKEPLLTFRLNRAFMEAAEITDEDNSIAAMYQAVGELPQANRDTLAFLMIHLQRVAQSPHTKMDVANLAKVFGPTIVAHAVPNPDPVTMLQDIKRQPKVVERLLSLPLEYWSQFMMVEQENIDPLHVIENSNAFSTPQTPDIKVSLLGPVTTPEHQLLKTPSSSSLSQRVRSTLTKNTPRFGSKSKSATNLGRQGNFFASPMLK

[18] = HEK293T cell cytotoxicity, dose response, cytotoxicity control for HIV Vif inhibitor project, cherry-picks (AID 652208); type: functional, cell-based
[19] = DNA binding of candidate compounds, dose response, artefact control for RAD54 inhibitor project, biochemical, fluorescence polarization, cherry-pick (AID 651673); type: functional
[20] = molecular target: T5, DNA repair and recombination protein RAD54-like (Homo sapiens, UniProt Q92698); assay: inhibitors of human RAD54 branch migration, confirmation, biochemical, fluorescence, cherry-picked samples, dose series (AID 651657); type: functional
T5 sequence (Q92698 whole entry): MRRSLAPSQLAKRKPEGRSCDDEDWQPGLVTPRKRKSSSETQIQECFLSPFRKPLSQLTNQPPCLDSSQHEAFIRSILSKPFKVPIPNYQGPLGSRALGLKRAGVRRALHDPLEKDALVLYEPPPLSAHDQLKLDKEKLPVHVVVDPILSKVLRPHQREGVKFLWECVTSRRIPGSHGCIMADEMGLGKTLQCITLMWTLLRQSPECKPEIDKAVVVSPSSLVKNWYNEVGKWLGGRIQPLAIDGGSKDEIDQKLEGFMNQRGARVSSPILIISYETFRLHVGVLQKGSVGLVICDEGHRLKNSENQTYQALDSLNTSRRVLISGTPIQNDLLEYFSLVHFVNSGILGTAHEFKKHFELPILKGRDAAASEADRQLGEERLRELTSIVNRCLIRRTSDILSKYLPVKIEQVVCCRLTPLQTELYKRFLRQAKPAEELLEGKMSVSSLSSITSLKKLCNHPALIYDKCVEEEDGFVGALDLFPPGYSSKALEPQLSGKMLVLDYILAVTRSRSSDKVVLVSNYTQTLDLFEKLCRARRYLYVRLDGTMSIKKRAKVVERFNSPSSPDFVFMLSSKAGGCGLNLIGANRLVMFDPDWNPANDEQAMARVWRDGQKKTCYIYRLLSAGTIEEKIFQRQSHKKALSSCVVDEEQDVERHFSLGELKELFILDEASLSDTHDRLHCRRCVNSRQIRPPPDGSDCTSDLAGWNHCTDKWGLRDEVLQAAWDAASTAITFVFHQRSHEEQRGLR

[21] = molecular target: T6, DNA repair protein RAD52 homolog (Homo sapiens, UniProt P43351); type: functional, biochemical
T6 sequence (P43351 whole entry): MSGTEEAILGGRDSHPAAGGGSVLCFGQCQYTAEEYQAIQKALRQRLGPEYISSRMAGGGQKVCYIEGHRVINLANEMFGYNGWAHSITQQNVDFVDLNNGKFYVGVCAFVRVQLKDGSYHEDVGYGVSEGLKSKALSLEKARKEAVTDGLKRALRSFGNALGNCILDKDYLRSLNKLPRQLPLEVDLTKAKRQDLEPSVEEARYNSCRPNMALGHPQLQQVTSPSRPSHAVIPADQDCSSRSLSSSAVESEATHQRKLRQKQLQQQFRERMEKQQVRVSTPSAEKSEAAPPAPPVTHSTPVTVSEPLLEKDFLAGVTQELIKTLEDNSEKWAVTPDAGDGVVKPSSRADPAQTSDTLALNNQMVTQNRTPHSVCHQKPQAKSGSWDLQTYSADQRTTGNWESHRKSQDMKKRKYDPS

Protein S100-A4 = Protein S100-A4 (Homo sapiens, UniProt P26447); assay: S100A4-myosin IIA binding inhibitor potency, dose response, biochemical, fluorescence polarization, cherry-picked hits (AID 687001); type: functional
[22] = molecular target: Palmitoyl-protein thioesterase ABHD10, mitochondrial (Mus musculus, UniProt Q6PE15); assay: Late stage assay provider results from the probe development effort to identify inhibitors of PME-1: fluorescence-based dose response biochemical gel-based competitive Activity-Based Protein Profiling (ABPP) inhibition of ABHD10 Set 1.; type: functional
Beta-lactamase [23] = molecular target: Beta-lactamase (Salmonella choleraesuis (strain SC-B67), UniProt Q5J463); assay: Epi-absorbance-based counterscreen for selective VIM-2 inhibitors: dose response biochemical high throughput screening assay to identify inhibitors of TEM-1 serine-beta-lactamase.
Beta-lactamase [24] = molecular target: T7, Beta-lactamase (Pseudomonas aeruginosa, UniProt Q79MP6); assay: IMP-1 metallo-beta-lactamase inhibitors, dose response, selectivity assay for VIM-2 inhibitor project, biochemical, epi-absorbance (AID 1920)
Beta-lactamase [25] = molecular target: T7, Beta-lactamase; assay: […] counterscreen for selective VIM-2 inhibitors: dose response biochemical high throughput screening assay to identify inhibitors of IMP-1 metallo-beta-lactamase.
[26] = NIH/3T3 fibroblast cytotoxicity, dose response, cytotoxicity control for T. cruzi growth inhibitor project, cell-based, cherry-pick samples, set 2 (AID 651817); type: functional; settings: NIH3T3
[27] = miR-122 activators in hepatoma reporter cells, dose response, cell-based, Huh7 psiCHECK-miR122, Renilla luciferase, cherry-picked (AID 651956); type: functional;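 further: huh7 hepatoma cells stably carrying a psiCHECK-2 miR-122 sensor plasmid; renilla luciferase signal reporting endogenous miR-122 activity after 48 h compound exposure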
[28] = molecular target: T8, Botulinum neurotoxin type A (Clostridium botulinum (strain Hall / ATCC 3502 / NCTC 13319 / Type A), UniProt P0DPI1); assay: High-throughput multiplex microsphere dose response for inhibitors of toxin protease, specifically Botulinum neurotoxin light chain A protease, compounds from Powder Set 01.; type: functional, Clostridium botulinum A str. ATCC 3502; settings: read-out: EC50_MICROM
[29] = molecular target: Botulinum neurotoxin type F (Clostridium botulinum, UniProt P30996); assay: High-throughput multiplex microsphere dose response for inhibitors of toxin protease, specifically Botulinum neurotoxin light chain F protease, compounds from Powder Set 01.; type: functional, Clostridium botulinum Bf; settings: read-out: EC50_MICROM
Lethal factor = Lethal factor (Bacillus anthracis, UniProt P15917); assay: High-throughput multiplex microsphere dose response for inhibitors of toxin protease, specifically Lethal Factor protease, compounds from Powder Set 01.; type: functional, Bacillus anthracis str. A2012; settings: read-out: EC50_MICROM
[30] = molecular target: T8, Botulinum neurotoxin type A; assay: Confirmatory FRET assay using full length substrates for Botulinum neurotoxin light chain A protease, with Powder Set01.; type: functional
[31] = HeLa cell cytotoxicity, dose response, cytotoxicity control for MgcRacGAP inhibitor project (AID 624300); type: functional
Cytochrome P450 2C9 = Cytochrome P450 2C9 (Homo sapiens, UniProt P11712)
Cytochrome P450 2C9, sequence (P11712 whole entry): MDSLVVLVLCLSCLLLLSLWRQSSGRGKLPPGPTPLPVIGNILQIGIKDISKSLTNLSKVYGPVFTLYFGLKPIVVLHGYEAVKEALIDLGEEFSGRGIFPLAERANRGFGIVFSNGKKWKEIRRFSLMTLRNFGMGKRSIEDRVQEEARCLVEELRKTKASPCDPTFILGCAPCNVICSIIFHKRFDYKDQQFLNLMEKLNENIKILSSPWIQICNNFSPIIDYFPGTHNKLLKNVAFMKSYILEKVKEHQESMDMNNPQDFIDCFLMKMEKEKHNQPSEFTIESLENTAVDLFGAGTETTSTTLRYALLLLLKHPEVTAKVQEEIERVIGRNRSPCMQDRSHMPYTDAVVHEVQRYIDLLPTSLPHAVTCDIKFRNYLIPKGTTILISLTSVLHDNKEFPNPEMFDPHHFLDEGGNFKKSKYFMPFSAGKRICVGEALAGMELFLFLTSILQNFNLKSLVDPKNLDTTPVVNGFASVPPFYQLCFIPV

T7 sequence (Q79MP6 whole entry): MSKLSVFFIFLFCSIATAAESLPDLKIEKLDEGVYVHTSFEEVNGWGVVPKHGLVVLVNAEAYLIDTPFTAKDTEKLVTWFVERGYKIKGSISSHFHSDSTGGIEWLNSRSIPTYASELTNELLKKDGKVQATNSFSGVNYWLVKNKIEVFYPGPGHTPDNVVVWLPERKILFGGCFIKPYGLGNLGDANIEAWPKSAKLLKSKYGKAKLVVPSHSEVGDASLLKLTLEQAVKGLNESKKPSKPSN
T3 sequence (Q9P0U3 whole entry, the tested form may be a part): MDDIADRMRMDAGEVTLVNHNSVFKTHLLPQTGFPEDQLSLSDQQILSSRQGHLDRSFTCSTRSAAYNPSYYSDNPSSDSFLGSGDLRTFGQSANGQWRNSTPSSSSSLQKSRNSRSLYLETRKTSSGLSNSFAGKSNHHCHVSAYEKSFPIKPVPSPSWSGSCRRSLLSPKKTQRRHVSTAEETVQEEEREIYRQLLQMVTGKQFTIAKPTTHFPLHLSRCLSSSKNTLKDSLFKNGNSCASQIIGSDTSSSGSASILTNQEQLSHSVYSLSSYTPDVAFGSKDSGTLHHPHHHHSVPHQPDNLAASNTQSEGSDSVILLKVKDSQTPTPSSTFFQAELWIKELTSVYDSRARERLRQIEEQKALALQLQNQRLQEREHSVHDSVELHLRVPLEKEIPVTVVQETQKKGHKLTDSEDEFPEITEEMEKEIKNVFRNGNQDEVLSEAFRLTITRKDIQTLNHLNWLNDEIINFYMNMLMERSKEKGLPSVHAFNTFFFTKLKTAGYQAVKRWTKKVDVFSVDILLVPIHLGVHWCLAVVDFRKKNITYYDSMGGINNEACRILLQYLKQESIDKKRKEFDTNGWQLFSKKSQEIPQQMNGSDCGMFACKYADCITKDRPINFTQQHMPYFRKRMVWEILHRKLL
T8 sequence (P0DPI1 2-448 limits assumed): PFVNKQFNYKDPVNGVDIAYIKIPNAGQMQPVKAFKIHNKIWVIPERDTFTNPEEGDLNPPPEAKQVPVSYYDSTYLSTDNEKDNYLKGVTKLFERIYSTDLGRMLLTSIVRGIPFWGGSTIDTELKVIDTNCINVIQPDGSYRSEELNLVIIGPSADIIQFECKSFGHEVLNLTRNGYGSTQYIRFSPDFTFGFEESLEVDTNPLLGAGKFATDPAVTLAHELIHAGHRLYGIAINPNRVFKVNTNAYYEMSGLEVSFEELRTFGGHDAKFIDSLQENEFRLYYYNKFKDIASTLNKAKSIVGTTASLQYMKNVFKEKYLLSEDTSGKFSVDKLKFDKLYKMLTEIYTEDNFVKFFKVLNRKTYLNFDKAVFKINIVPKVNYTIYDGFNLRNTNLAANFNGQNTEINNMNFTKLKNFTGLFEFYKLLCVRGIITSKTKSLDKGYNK
Palmitoyl-protein thioesterase ABHD10, mitochondrial, sequence (Q6PE15 whole entry): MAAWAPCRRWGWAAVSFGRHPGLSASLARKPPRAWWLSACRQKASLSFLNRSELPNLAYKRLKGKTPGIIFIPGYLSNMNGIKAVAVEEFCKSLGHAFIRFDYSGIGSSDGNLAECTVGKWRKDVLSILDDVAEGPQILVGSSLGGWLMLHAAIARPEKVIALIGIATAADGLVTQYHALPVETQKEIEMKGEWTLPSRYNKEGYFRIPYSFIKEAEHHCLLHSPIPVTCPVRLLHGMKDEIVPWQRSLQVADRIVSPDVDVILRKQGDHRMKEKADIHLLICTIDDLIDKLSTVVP
Beta-lactamase (Salmonella choleraesuis (strain SC-B67), UniProt Q5J463), sequence (Q5J463 whole entry): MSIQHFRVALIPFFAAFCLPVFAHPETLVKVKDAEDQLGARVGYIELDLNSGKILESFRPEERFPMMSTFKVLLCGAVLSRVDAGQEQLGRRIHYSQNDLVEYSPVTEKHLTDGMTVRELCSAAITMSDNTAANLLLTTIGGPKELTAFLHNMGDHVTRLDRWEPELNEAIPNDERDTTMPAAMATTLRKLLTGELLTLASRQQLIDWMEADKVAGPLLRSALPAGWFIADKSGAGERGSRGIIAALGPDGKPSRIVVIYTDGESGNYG
Protein S100-A4, sequence (P26447 whole entry): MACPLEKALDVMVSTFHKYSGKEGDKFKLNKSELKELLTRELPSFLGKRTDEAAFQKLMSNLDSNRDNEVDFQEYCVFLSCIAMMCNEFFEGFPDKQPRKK
Botulinum neurotoxin type F, sequence (P30996 1-436 limits assumed): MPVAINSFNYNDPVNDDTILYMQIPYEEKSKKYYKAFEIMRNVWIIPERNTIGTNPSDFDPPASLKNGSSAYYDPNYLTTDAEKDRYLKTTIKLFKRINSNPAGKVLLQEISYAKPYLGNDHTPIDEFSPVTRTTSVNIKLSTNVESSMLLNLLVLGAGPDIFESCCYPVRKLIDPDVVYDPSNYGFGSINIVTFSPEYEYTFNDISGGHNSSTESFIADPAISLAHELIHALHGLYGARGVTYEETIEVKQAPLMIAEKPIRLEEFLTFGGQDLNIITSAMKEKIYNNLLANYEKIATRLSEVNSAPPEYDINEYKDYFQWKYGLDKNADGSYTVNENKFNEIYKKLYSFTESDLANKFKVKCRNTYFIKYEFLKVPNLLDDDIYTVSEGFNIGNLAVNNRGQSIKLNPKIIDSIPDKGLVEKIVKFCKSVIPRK
Lethal factor, sequence (P15917 whole entry): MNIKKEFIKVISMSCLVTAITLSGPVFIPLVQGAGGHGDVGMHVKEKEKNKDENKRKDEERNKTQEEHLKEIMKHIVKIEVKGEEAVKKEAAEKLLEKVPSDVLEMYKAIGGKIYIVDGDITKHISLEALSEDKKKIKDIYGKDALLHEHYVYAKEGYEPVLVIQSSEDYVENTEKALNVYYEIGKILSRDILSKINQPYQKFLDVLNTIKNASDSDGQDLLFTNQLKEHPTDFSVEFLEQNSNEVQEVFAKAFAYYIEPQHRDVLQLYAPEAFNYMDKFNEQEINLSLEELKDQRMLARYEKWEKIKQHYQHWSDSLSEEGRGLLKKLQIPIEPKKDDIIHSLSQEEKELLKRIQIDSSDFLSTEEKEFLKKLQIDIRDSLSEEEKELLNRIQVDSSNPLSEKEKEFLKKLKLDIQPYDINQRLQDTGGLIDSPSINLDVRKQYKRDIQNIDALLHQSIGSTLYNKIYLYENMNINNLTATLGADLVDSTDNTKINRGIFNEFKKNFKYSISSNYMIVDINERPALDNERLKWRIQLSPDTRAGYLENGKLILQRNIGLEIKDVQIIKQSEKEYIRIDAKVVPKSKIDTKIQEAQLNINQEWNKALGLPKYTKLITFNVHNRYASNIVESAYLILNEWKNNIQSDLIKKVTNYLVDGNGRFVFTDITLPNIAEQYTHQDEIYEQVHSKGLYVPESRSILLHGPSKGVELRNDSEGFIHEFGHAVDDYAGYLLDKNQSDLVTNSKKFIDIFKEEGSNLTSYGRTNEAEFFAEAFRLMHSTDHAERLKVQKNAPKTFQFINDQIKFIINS

CCC(CO)Oc1cc(NCc2cccc(C)c2)c2ncn(C(C)C)c2c1 (stereo unspecified)
IC50 [1]: 14 µM (active)
IC50 [2]: 12.6 µM (active)
IC50 (Caspase-3): 46.6 µM (active)

C[C@@H]1CN([C@H](C)CO)C(=O)c2cccc(NC(=O)c3ccncc3)c2O[C@@H]1CN(C)Cc1ccc(Cl)c(Cl)c1
IC50 [3]: 5.59 µM (inactive)
IC50 [4]: > 100 µM (inactive)
IC50 [5]: 5.59 µM (inactive)
IC50 [6]: > 100 µM (inactive)
IC50 [7]: 11.1 µM (inactive)

COc1cc([C@H]2c3c(cc(OC)c(O)c3OC)C[C@@H](CO)[C@@H]2CO[C@@H]2O[C@H](CO)[C@@H](O)[C@H](O)[C@H]2O)cc(OC)c1O
IC50 [8]: 24.4 µM (inactive)
IC50 [9]: 14.2 µM (active)

CCOc1cc(/C=C2\CN(CC)C/C(=C\c3ccc(O)c(OCC)c3)C2=O)ccc1O
EC50 (BJ [10]): 4.09 µM (active)
EC50 (BJ [11]): 3.15 µM (inconclusive)
EC50 [12]: 3.65 µM (active)
EC50 (BJ [13]): 0.583 µM (active)
AC50 [14]: 2.12 µM (active)
AC50 [15]: 9.14 µM (active)
AC50 [16]: 12.5 µM (active)
IC50 [17]: 46.6 µM (active)
AC50 [18]: 14.7 µM (active)

COc1ccc(-c2nc(NCCCN(C)C)c3ccccc3n2)cc1
AC50 [19]: 46.8 µM (active)
AC50 [20]: 6 µM (active)
AC50 [21]: 2.39 µM (active)

O=C1C(N2CCOCC2)=Cc2cccc3cccc1c23
AC50 (Protein S100-A4): 1.09 µM (active)

CCCOC(=O)N1C(=O)[C@@](CC)(c2ccc(C)cc2)N1C(=O)OCCC
IC50 [22]: 0.012 µM (active)

CCCCn1c(S)nnc1-c1nn(C)cc1Cl
IC50 (Beta-lactamase [23]): > 59.6 µM (inactive)
IC50 (Beta-lactamase [24]): > 59.6 µM (inactive)
IC50 (Beta-lactamase [25]): > 59.6 µM (inactive)

Cc1ccc(S(=O)(=O)N(C)C[C@@H]2Oc3c(NC(=O)c4nc5ccccc5s4)cccc3C(=O)N([C@H](C)CO)C[C@@H]2C)cc1
AC50 [26]: 24.8 µM (active)

C[C@@H]1CN([C@H](C)CO)S(=O)(=O)c2ccc(/C=C/c3ccccc3)cc2O[C@@H]1CN(C)C(=O)c1cccnc1
AC50 [27]: 2.93 µM (active)

Cc1ccc(-c2cn3nc(-c4ccccc4)c(-c4ccccc4)nc3n2)cc1
EC50 [28]: 1.5 µM (active)
EC50 [29]: 9.1 µM (active)
EC50 (Lethal factor): 2 µM (active)
EC50 [30]: 2.5 µM (active)

CN(C)CCCN1c2ccc3ccccc3c2Sc2cccc(Cl)c21
CC50 [31]: 42.8 µM (active)
IC50 [17]: 48.9 µM (active)
AC50 (Cytochrome P450 2C9): 7.94 µM (inconclusive)
